The nature of data set [1]: In-office laser tooth whitening, desensitizer applied post treatment: tooth sensitivity. Conditions: for duration of tooth sensitivity: confirmed by follow up phone calls; for subjects experiencing tooth sensitivity after application of the desensitizer: 5 subjects per group. The data set is classed as in vivo, human. The source says: In-office laser tooth whitening procedure using Biolase EZ lase, 7W diode laser, and the LaserWhite *20 whitening gel kit.
A total of 15 candidates were selected and screened (for the presence of active decay, faulty restorations, cervical abrasion and attrition, enamel cracks) for the whitening procedure.
The arch has been divided in 4 quadrants, K1 (upper right), K2 (upper left), K3 (lower left), K4 (lower right).
The amount of 400 Jules has been applied per quadrant per application, in two separate applications. (total of 800 Jules per quadrant).
The candidates were assigned to 3 groups.
Group 1 is considered the control (C1), receiving desensitizer (post treatment) containing potassium nitrate.
Group 2, a second control group (C2), received as desensitizer (post treatment) stannous fluoride.
Group 3 (C3) received as desensitizer sodium pyruvate 99% in crystalline form. (applied over the gingival, gingival margin and DEJ).

For data set [2] the following is noted: intracoronary; cited from earlier work.
For data set [3], the system named is human and bovine endothelial cells. The conditions noted are these: cited from earlier work.
In a further data set the test system is isolated cardiomyocytes. Conditions: 1-10 millimolar; cited from earlier work.
In data set [4] the test system is isolated liver mitochondria. The conditions noted are these: 1 mM pyruvate; cited from earlier work.
For data set [5] the following is noted: cardioplegia; cited from earlier work.
A further data set concerns oxidative stress. The conditions noted are these: cited from earlier work.
Data set [6] concerns mammalian cellular systems. Conditions: applied exogenously in concentrations up to about 10 mM, short term studies; cited from earlier work.
The conditions of data set [7]: cited from earlier work.
Data set [8] in a line: Gingival lesions after tooth whitening, treated only with sodium pyruvate. The class given is in vivo, human. The text has this:
In addition, overall 6 patients presented with gingival lesions, manifested by burning sensation on the gingival margin, and visually expressed by white areas on the gingival margin.

For data set [9] the following is noted: R. Bünger et al., unpublished observations; cited from earlier work.

Regarding `O=[N+]([O-])[O-].[K+]` [potassium nitrate], the “duration of tooth sensitivity” value in [1] was “up to 24 hours”. The “subjects experiencing tooth sensitivity after application of the desensitizer” value in data set [1] (end of whitening procedure) is 3 out of 5.
Consider `CC(=O)C(=O)O` [pyruvate], for which, in data set [2], the efficacy entry is on record as “beneficial efficacy” and the toxicity entry was “no obvious toxicity”. Besides, in data set [3] (30 min pulse of 0.5 mM H2O2), the bc1-2/bax ratio entry was “increasing the bc1-2/bax ratio”; the cellular glutathione pool entry is “stabilizing the cellular glutathione pool”; the “cellular viability and survival” value is “dose-dependently enhanced cellular viability and survival”. For the same compound, in data set [3] (H2O2-treated endothelial cells), the “phosphorylated p38 mitogen activated kinase” value is on record as “prevented the accumulation of phosphorylated p38 mitogen activated kinase” and the “phosphorylation of ERK1/2” value is “transiently increased phosphorylation of ERK1/2”. In addition, in the data set on isolated cardiomyocytes, the calcium transients result is on record as “improves the calcium transients”; the cytotoxicity entry is “without apparent cytotoxicity”; the “mitochondrial stability and mitochondrial Δϕ” value was “increases mitochondrial stability and mitochondrial Δϕ”. Moreover, in data set [4], the “dissociation of cytochrome C” value is given as “prevented the dissociation of cytochrome C”, the “expression of antiapoptotic bc1-2” value was “enhanced expression of antiapoptotic bc1-2” and the mitochondrial respiration result was “stabilized respiration”. In addition, the mortality and morbidity result in data set [5] was “reduced mortality and morbidity”. Also, in the data set with oxidative stress, the “pyruvate level of optimum efficacy” value is 2 to 5 mM and the “pyruvate level required for beneficial effects” value was at least 0.5 mM. Further, the cytotoxicity entry in data set [6] is given as “virtually no or little cytotoxicity”. For the same compound, the “rate constant of scavenging of peroxynitrite” value in [7] (pH 7.4, 37° C.) was 88 to 100 mol⁻¹ s⁻¹. For the same compound, the “reaction with peroxynitrite faster than with H2O2” value in [7] (physiological pyruvate anion) is listed as “about 40 times”. Also, in data set [7] (pyruvate decarboxylates to acetate), the “speed of reaction with peroxynitrite relative to that with H2O2” value was “about one order of magnitude faster”.
As for `[13CH3][13C](=O)C(=O)[O-].[Na+]` [sodium pyruvate, α-Ketopropionic acid-2,3-13C2 sodium salt], in data set [1], the “duration of tooth sensitivity” value is at most 24 h. In data set [1] (end of whitening procedure), the “subjects experiencing tooth sensitivity after application of the desensitizer” value is on record as 1 of 5. Also, in [8] (6 patients with gingival lesions, treated only with sodium pyruvate), the “burning sensation on the gingival margin” value is “immediate relieve of the burning sensation”. Further, the “visual inspection of the gingiva” value in data set [8] (previously discolored (white) site on the gingival margin) is on record as “normal appearance of the gingiva”. In addition, in [9], the stability result is listed as “relative stability” and the water solubility entry is “high water solubility”.
For the compound `[F][Sn][F]` [stannous fluoride], the “duration of tooth sensitivity” value in data set [1] is reported as “over 24 hours”. Also, the “members of the group experiencing tooth sensitivity” value in data set [1] (end of whitening procedure) turned out to be 100%.

The values are drawn from patent publication US10226409B2, “Pyruvate and related α-keto carboxylates as novel adjuvants in the treatment of post tooth whitening sensitivity and the tissue protective effect of pyruvate on the oral soft tissue” (priority 2016, dated 2019).
